# Measurements published in ChEMBL document CHEMBL1149531, “Inhibitory effect of 2-arylbenzofurans from Erythrina addisoniae on protein tyrosine phosphatase-1B” (Bioorg Med Chem Lett, 2007).
# Target: T1, Tyrosine-protein phosphatase non-receptor type 1 (Homo sapiens, UniProt P18031)
# T1 sequence (P18031 whole entry): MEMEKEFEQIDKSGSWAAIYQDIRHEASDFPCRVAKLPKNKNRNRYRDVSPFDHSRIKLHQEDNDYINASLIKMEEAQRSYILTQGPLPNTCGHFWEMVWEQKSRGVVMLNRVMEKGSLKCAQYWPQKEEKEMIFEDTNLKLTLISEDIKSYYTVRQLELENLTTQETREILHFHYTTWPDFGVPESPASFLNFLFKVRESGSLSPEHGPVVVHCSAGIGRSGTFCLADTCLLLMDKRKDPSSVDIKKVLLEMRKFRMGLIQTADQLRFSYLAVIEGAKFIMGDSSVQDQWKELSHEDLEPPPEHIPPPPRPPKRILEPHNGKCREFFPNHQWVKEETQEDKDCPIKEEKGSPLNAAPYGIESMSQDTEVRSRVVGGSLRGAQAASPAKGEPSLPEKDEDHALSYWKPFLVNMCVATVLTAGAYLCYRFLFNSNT
row,SMILES,IC50
1,CC1(C)C=Cc2c(O)ccc(-c3cc4ccc(O)cc4o3)c2O1,62.7 µM
2,CC1(C)C=Cc2c(ccc(-c3cc4ccc(O)cc4o3)c2O)O1,64.9 µM
3,COc1ccc2cc(-c3ccc(O)cc3OC)oc2c1,74.1 µM
4,CC(C)=CCc1c(O)ccc(-c2cc3ccc(O)cc3o2)c1O [2'-O-DEMETHYLBIDWILLOL B],13.6 µM
5,COc1cc(O)c(CC=C(C)C)cc1-c1cc2ccc(O)cc2o1 [ADDISOFURAN A],17.5 µM
6,COc1cc(O)ccc1-c1cc2cc(CC=C(C)C)c(O)cc2o1 [ADDISOFURAN B],15.7 µM
